In patent US6989263B1, “Method for identifying and using compounds that inactivate HIV-1 and other retroviruses by attacking highly conserved zinc fingers in the viral nucleocapsid protein” (The United States of America as represented by the …, priority 1994, dated 2006):
Entries after “also recorded” stand apart in the source; their conditions may differ. Read-outs that look alike come from different tables or passages of the source.

How the values were obtained:
p7NC = target: T1, p7NC (Human immunodeficiency virus type 1 group M subtype B, UniProt P05888); assay: HPLC analysis of reaction products of purified p7NC with reagent; assay type: biochemical, HIV-1; set-up: key to Protein (HPLC): reaction products / Protein (HPLC): reaction rate: formation of non-native, intra-protein disulfide links (designated “Disulfides”); some of the reagents form adducts with the cysteine residues as well (designated “Adducts”); slow: “Slow” reactions are those in which greater than 10% of the p7NC protein remained in its native form after the 10 minute incubation with reagent; very slow: “Very slow” reactions are those in which greater than 50% of the p7NC protein remained in its native form after the 10 minute incubation with reagent; fast: “Fast” reactions result in complete transformation of the p7NC protein to non-native conformations during the 10 minute incubation period; conditions: for Protein (HPLC): reaction products: 63 μM p7NC, 6 reagent : 1 protein, 10 minutes
T1 construct: The NC protein of HIV-1 (MN) p7NC was expressed in E. coli; made in house; host or cells: E. coli (vector pMAL-c)
Text: Highly purified retroviral NC proteins can be produced by expression from vectors generated through recombinant DNA technology. These proteins when reconstituted with zinc (see, Summers, et al., Protein Science 1:563–567 (1992) for methods), provide the source of the NC proteins containing the zinc fingers that are the targets for attack by the compounds of this invention. When the zinc fingers in NC proteins react with identified compounds, the reaction produces a covalent change in the NC protein, and the modified protein can be separated from the unreacted protein by, for example, reversed phase HPLC.
Samples of p7NC and apo-p7 were reacted with varying amounts of cupric chloride and resulting products separated by HPLC. The reactions were carried out using 44.3 μM protein (p7NC or apo-p7) in 0.1 M Tris-HCl, pH 7.4, for 6 minutes at room temperature with varying concentrations of CuCl2 to achieve the indicated ratios of reactants, in a final volume of 0.7 ml. Chromatography was carried out on the resulting products at pH 2 (0.05% trifluoroacetic acid) on μBondapak™ C-18 (3.9×300 mm) at 1.0 ml/minute using an acetonitrile gradient (0–17%, 20 ml; 17–20%, 60 ml; 20–60%, 10 ml). Elution positions of unreacted protein (p7NC or apo-p7) are indicated as apo-p7.
A two-fold excess of NOBA was reacted with p7NC, and the products were separated by HPLC (FIG. 10) as described above for Cu^+2 and p7NC. Elution positions for the reactants (NOBA and unreacted p7NC) and products, reacted p7NC, NOBA, HABA and AzoxyBA are indicated and an elution profile is included in FIG. 10. NOBA and AzoxyBA were supplied by Octamer, Inc. (Mill Valley, Calif.) and used as HPLC standards.
The disulfide reagent of choice (each available from the Aldrich Chemical Company (Milwaukee, Wis.)) was incubated for 10 minutes with purified p7NC protein (63 μM) at a ratio of 6 molecules of reagent to 1 molecule of NC protein (there are 6 cysteine thiols per NC protein). The formation of non-native protein conformations was monitored by HPLC as described above. […] Generally, the inactivation proceeds by formation of non-native, intra-protein disulfide links (designated “Disulfides”), but some of the reagents form adducts with the cysteine residues as well (designated “Adducts”). “Slow” reactions are those in which greater than 10% of the p7NC protein remained in its native form after the 10 minute incubation with reagent. “Very slow” reactions are those in which greater than 50% of the p7NC protein remained in its native form after the 10 minute incubation with reagent. “Fast” reactions result in complete transformation of the p7NC protein to non-native conformations during the 10 minute incubation period.

HIV-1 [1] = assay: microbe, parasite or virus in culture; conditions: Human immunodeficiency virus 1, read-out: TCID (Virus): concentration of reagent required to inactivate half of a standardized number of HIV-1 virus particles
Method: (§1) Concomitantly, the drug treated virions are tested for activity. The virions are suspended in media (rather than solubilized) and added to target cells. The cultures are then examined to determine whether the virions are still active.

[2] = target: T2, HIV NC protein in intact virus (Human immunodeficiency virus type 1 group M subtype B, UniProt P05888); assay: Cross-linking of NC protein in intact HIV (non-reducing gel-mobility shift, western blot); assay type: biochemical, HIV-1; conditions: for X-link T-½ (min), HIV NC protein (top number): intact HIV generally 12.5 μM, reagent generally 25 μM
T2 construct: endogenous in cells; host or cells: intact HIV virions
Text: Purified concentrated retrovirus and antisera against the purified NC protein of the virus can be used to test the ability of a specific compound to penetrate the virus and react with the NC protein by forming disulfide complexes in the core of the virus. The compound is mixed with the whole retrovirus under reaction conditions appropriate for the compound. The virus is then removed from the reagent by centrifugation and disrupted in, e.g, standard SDS-PAGE sample buffer with (reduced) and without (non-reduced) 2-mercaptoethanol. The viral proteins are then separated by standard SDS-PAGE and the sample examined for the presence or absence of the monomeric NC protein in the non-reduced sample. Depending upon the virus used in the experiment and the conditions of electrophoresis, the NC protein can be visualized by protein staining methods, or by immuno-blot (e.g., western) methods. Compounds which react with the NC protein by attacking the zinc finger complexes and forming disulfide cross-linked products (i.e., which generate multimers in the mobility shift assay) inactivate the virus. Thus, compounds of interest (i.e., those which cause cross-linking) reduced the amount of monomeric NC protein detected.
In order to determine whether HIV-1MN was inactivated by NOBA, the virus was incubated with varying concentrations of NOBA (3.0, 0.3, 0.03 and 0 mM) as in Table 1. The reaction products were pelleted by centrifugation, and separated by SDS-PAGE under reducing (2% 2-mercaptoethanol, panel A), or non-reducing conditions (panel B). p7NC was visualized by immunoblot analysis using monospecific rabbit antisera to the purified NC proteins as per L. E. Henderson et al., J. Virol. 66:1856 (1992).
Disulfide reagents were further tested for their ability to disrupt NC structure in the virus, based on their ability to cause inter-NC cysteine disulfide bonds (i.e., cross-linking) in the intact virus. The formation of inter-NC cysteine disulfides creates NC multimers, which migrate through a non-reducing gel at a different rate than NC monomers, as described above. Intact HIV virus (generally 12.5 μM) was exposed to the specified reagent (generally 25 μM) for varying lengths of time and electrophoresed through a non-reducing SDS-polyacrylamide gel. HIV NC monomers and multimers were visualized by western blot analysis as described above in Example 3. The approximate time required to cross-link one-half of the NC proteins in the virus at the specified reaction conditions was then determined. […] The top number in the cells of the X-link column in Table 2 refers to the approximate time in minutes required for one-half of the HIV NC proteins to become cross-linked.

[3] = cited from earlier work
[4] = target: T3, p11 Nucleocapsid Protein (p11NC) (Equine infectious anemia virus, UniProt P69732); assay: Cross-linking of p11NC in intact EIAV particles (gel-mobility shift); assay type: biochemical; conditions: intact EIAV (50 μM), 4× the HIV assay concentrations
T3 construct: a variety of disulfide reagents cross-link the p11NC protein in intact viral particles; endogenous in cells; host or cells: intact EIAV particles
T3 sequence (P69732 360-435): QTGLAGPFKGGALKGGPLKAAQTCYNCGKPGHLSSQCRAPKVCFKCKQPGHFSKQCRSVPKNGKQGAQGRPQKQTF
Text: Essentially the same strategy was employed to analyze the ability of the various disulfide reagents to cross-link the p11 Nucleocapsid Protein (p11NC) in intact Equine Infectious Anemia Virus (EIAV) particles. The advantages of working with EIAV include the fact that it is not a human pathogen, and that the p11NC protein can be visualized by simple coomassie-blue staining after performing the gel-mobility shift assay (rather than by western blotting as for HIV) described above. The reaction conditions were essentially the same for the EIAV assays as for the HIV assays described above, except that the concentration of virus and disulfide reagent was 4× the concentrations used in the HIV assay above. The second number in each cell in the X-link column in Table 2 represents the time required to cross-link one-half of the p11NC protein in the intact viral particles. […] The bottom number in each cell of the X-link column, unless otherwise indicated, represents the concentration of EIAV used in the assay. Blank cells throughout Table 2 indicate that the compound has yet to be tested for the specified property.

HIV-1 [5] = conditions: PCR and viral inactivation assays
Method: as §1

[6] = system: SSFV (spleen focus forming virus); assay: Survival of mice infected with SSFV; assay type: in vivo; conditions: oral doses, versus infected untreated mice
Text: Mice susceptible to the retrovirus SSFV (spleen focus forming virus) when injected with the virus die within 35–40 days as a result of virally-mediated transformation of cells of the spleen.

| SMILES | Protein (HPLC): reaction products (p7NC) | IC50 (HIV-1 [1]) [µM] | cross-linking of the HIV-1 NC protein in intact virus (gel-mobility shift), in words [2] | X-link T-½ (min), HIV NC protein (top number) [2] | Toxicity (LD-50, mouse) ([3]; oral) [mg/kg] | X-link T-½ (min), EIAV p11NC (second number) [4] [min] | reaction with purified p7NC (HPLC), in words (p7NC) | inactivation of HIV-1 virus / infectivity, in words (HIV-1 [5]) | inactivation of HIV-1 virus / infectivity, in words (HIV-1 [5]; listed as Tetraethylthiuram disulfide) | Toxicity (LD-50, mouse) ([3]; IP) [mg/kg] | survival after SSFV infection [6] |
| --- | --- | --- | --- | --- | --- | --- | --- | --- | --- | --- | --- |
| O=C(SSC(=O)c1ccccc1)c1ccccc1 [Benzoyl Disulfide] | Disulfides; also recorded: Adducts | 68 | – | – | – | – | – | – | – | – | – |
| S=C(SSC(=S)N1CCCCC1)N1CCCCC1 [Dicyclopentamethylenethiuram Disulfide] | Disulfides | 4 | caused a cross-linking of the HIV-1 NC protein | <<15 min | 2870 | ~10 | – | – | – | – | – |
| CCN(CC)C(=S)SSC(=S)N(CC)CC [Tetraethylthiuram Disulfide, reference compound] | Disulfides | 66 | – | ~15 min | 1980 | ~15 | reacts with p7NC to form oxidized p7 (disulfides) | inactivates the virus | inactivate HIV-1 virus | 75 | survived SSFV infection significantly longer |
| CN(C)c1ccc(SSc2ccc(N(C)C)cc2)cc1 [4-(dimethylamino)phenyl disulfide] | (negative) | 17.5 | – | – | – | – | – | – | – | – | – |
